# According to patent publication US8283439B2, “Recombinant fragments and synthetic peptides of 17-kDa polypeptide useful in detecting Bartonella henselae” (Medical Diagnostic Laboratories L.L.C., priority 2008, dated 2012):
# Entries after “also recorded” stand apart in the source; their conditions may differ.
# What was measured:
# [1] = test system: antibodies present in IFA sero-positive sera from patients infected with Bartonella henselae (IgG); assay: IgG ELISA with synthetic polypeptides of 17-kDa protein as coating antigen; format: binding, human; conditions: for antibody binding activity in ELISA: IFA sero-positive sera, mostly relative to peptide 3C
# From the text: A panel of 47 human sera, including 27 IFA positive and 20 WA negative sera, was used. ROC analysis was used to analysis the binding activity via OD450nm (FIGS. 19 and 21). AUCs for peptide 3C, 3B, 3D, and 3E were 0.9, 0.5, 0.5, and 0.8 respectively (FIGS. 19 and 21). […] Thus, the antibody recognition site seems to be present on peptide 3C (but not peptides 3B and 3D).
# We adopted an IgG ELISA assay and evaluated the binding activity of the modified peptides towards IgG. The ELISA procedure involves: (i) coating 96-well micro-titer plates with modified peptides at varying concentrations (e.g., 0.2-5 μg/ml) at 4° C. overnight; (ii) adding 5% skim milk to block non-specific binding; (iii) adding patients' sera to allow formation of antibody-antigen complex; (iv) detecting the antibody-antigen complex. IFA sero-positive sera served as positive controls and IFA sero-negative sera served as negative controls. Detection of antibody-antigen complex was performed with the use of horseradish peroxidase.
# A panel of 47 human sera was used in an ELISA assay to evaluate the sensitivity and specificity for synthetic polypeptides of 17-kDa protein. This panel contains 27 IFA positive sera and 20 IFA negative sera. Synthetic polypeptides used include amino acid substitution (Peptide 3C-CS3), addition (Peptide 3C-Ext2), and deletion (Peptide 3C-Del). Antibody binding was reflected by OD450nm, which was analyzed by Interactive dot diagram in statistic software MedCalc.
# [2] = test system: antibodies against Bartonella henselae in IFA sero-positive patient sera (IgG); assay: IgG ELISA with recombinant 17-kDa protein or Fragment 3 as coating antigen; format: binding, human
# Description: In the ELISA assay, purified Fragment 3 protein was diluted in coating buffer to a final concentration of 250 ng/ml. Antigen was adhered to 96-well plate by applying 100 μl this solution per well and incubated at 4° C. for 18 hours. Uncoated antigen was removed by washing the plate three times with PBST wash buffer. After washing, post-coating was done with 300 μl blocking reagent General Blocker BB1 in each well for 1 hour at 22° C. Primary polyclonal antibody from 100 μl serum in 1:100 sample dilution buffer each well was allowed to react with coated antigen for 1 hour at 22° C. After five wash steps with PBST wash buffer, each well was incubated with […] peroxidase conjugated goat anti-human IgG (KPL, 1:20,000 from 1 mg/ml stock in sample dilute buffer) for 30 minutes at 22° C. The excess amount of secondary antibody was also removed by five wash steps with PBST wash buffer. The reaction were visualized by adding 100 μl substrate 3,3′5,5′-Tetramethylbenzidine solution and incubated at 22° C. for 15 minutes. The reaction was terminated by adding 100 μl 0.5 M H2SO4 per well before taking OD450nm measurement. Receiver operating characteristic curve (ROC) analysis was calculated with associated 95% confidence interval using a binomial distribution with the MedCalc program.
# In this series of studies, a panel containing 12 IFA positive serum samples and 6 IFA negative serum samples was evaluated by ELISA using the respective antigen as the coating antigen. FIG. 15 presents the results of this ELISA analysis. […] Neither antigen bound antibody in sample #3508.
# To further characterize the comparative abilities of recombinant Fragment 3 and the full length protein to bind antibodies to Bartonella henselae, a broader panel of 47 serum samples (27 IFA positive serum samples and 20 IFA negative serum samples) was analyzed by ELISA. The raw data was analyzed with ROC curve comparison in statistic software MedCalc.
# A panel of 47 human sera was used in an IgG ELISA to evaluate the sensitivity and specificity for Fragment 3 mutants. The raw data was analyzed by interactive dot diagram assay (FIGS. 31 and 32).
# Purified protein was diluted in coating buffer to a final concentration 250 ng/ml. Antigen was adhered to 96-well plate by applying 100 μl above prepared solution per well and incubate at 4° C. for 18 hours. We removed uncoated antigen by washing plate three times with PBST wash buffer. After washing, post-coating was done with 300 μl blocking reagent General Blocker BB1 each well for 1 hour at 22° C. Then primary polyclonal antibody from 100 μl serum in 1:100 sample dilution buffer each well was allowed to react with coated antigen for 1 hour at 22° C. After five times washing with PBST wash buffer, we incubated each well with 100 μl peroxidase conjugated goat anti-human IgG (KPL, 1:20,000 from 1 mg/ml stock in sample dilute buffer) for 30 minutes at 22° C. The excess amount of secondary antibody was also removed by five times washing with PBST wash buffer. The reaction were visualized by adding 100 μl substrate 3,3′5,5′-Tetramethylbenzidine Solution and incubated at 22° C. for 15 minutes. In the end, we terminated reaction with 100 μl 0.5 M H2SO4 per well before taking OD450nm measurement. Receiver operating characteristic curve (ROC) analysis was calculated with associated 95% confidence interval using a binomial distribution with MedCalc program.
# [3] = panel study, 47 human sera (27 IFA positive, 20 IFA negative), interactive dot diagram
# [4] = ELISA, panel of 47 human sera (27 IFA positive, 20 IFA negative), ROC analysis of OD450nm
Molecule,antibody binding activity in ELISA [1],"sensitivity [1, 3] [%]","specificity [1, 3] [%]",also measured
"EDLQKQLKSDKEVKLRLE (listed as Bartonella henselae) [Peptide 3C-RD2, peptide 3C with substitution of the last 10 AA at C-terminus]",completed abrogated the binding activity; also recorded: fail to bind antibody,~11,0,
"DDLQKQLKEKLEKSDVRL (listed as Bartonella henselae) [Peptide 3C-CS1, peptide 3C with conservative substitution E to D]",identical binding activity as compared to that of peptide 3C,,,
"ED_QKQLKEKLEKSDVRL (EDQKQLKEKLEKSDVRL; listed as Bartonella henselae) [Peptide 3C-Del, peptide 3C with leucine at third position from N-terminus deleted]",did not alter the binding activity; also recorded: identical binding activity as compared to that of peptide 3C,~80,~90,
"EEQTQKKHEDLQKQLK (listed as Bartonella henselae) [Peptide 3D, synthetic polypeptide, aa 123-138 of 17-kDa protein]",,,,"AUC [1, 4]: 0.5; sensitivity [1, 4]: 85.2%; specificity [1, 4]: 25.0%"
"EDLQKQLKEKLEKSDVRL (listed as Bartonella henselae) [Peptide 3C, synthetic polypeptide, aa 131-148 of 17-kDa protein]",possesses the antibody binding activity; also recorded: dose-dependent increase in binding towards sero-positive serum,,,"AUC [1, 4]: 0.9; sensitivity [1, 4]: 77.8%; specificity [1, 4]: 88.2%; antibody binding activity in ELISA ([1]; listed as SEQ ID NO: 22): possesses the ability to bind to antibodies present in IFA positive sera"
"QKKHEDLQKQLKEKLEKSDVRL (listed as Bartonella henselae) [Peptide 3C-Ext1, peptide 3C with addition of 4 AA at N-terminus]",same binding activity as compared to that of peptide 3C,,,
"LKQDEQKLEKLEKSDVRL (listed as Bartonella henselae) [Peptide 3C-RD1, peptide 3C with substitution of the first 8 AA at N-terminus]",same binding activity as compared to that of peptide 3C,,,
"QAKDTKTKEELREEQTQK (listed as Bartonella henselae) [Peptide 3B, synthetic polypeptide, aa 111-128 of 17-kDa protein]",,,,"AUC [1, 4]: 0.5; sensitivity [1, 4]: 33.3%; specificity [1, 4]: 90.0%"
"EKLEKSDVRL (listed as Bartonella henselae) [Peptide 3E, synthetic polypeptide, aa 139-148 of 17-kDa protein]",not sufficient to complete antibody binding,,,"AUC [1, 4]: 0.8; sensitivity [1, 4]: 40.7%; specificity [1, 4]: 88.2%; antibody binding activity in ELISA ([1]; listed as SEQ ID NO: 33): by itself insufficient to render the ability to bind antibodies present in IFA positive sera"
"EQTQKKHEDLQKQLKEKLEKSDVRL (listed as Bartonella henselae) [Peptide 3C-Ext2, peptide 3C with addition of 7 AA at N-terminus]",same binding activity as compared to that of peptide 3C; also recorded: identical binding activity as compared to that of peptide 3C,~80,~90,
"EDLQKQVKEKLEKSDVRL (listed as Bartonella henselae) [Peptide 3C-CS3, peptide 3C with conservative substitution L to V]",same binding activity; also recorded: identical binding activity as compared to that of peptide 3C,~80,~90,
"EDIQKQLKEKLEKSDVRL (listed as Bartonella henselae) [Peptide 3C-CS2, peptide 3C with conservative substitution L to I]",same binding activity,,,
"LKLELELVQDSDKQEKRK (listed as Bartonella henselae) [Peptide 3C-RD, peptide 3C with substitution of the entire 18 AA]",no binding activity; also recorded: fail to bind antibody,~11,0,
"17-kDa Fragment 3: His-tagged recombinant fragment of 17-kDa protein, aa 77-148, glutamine instead of arginine at position 147 (protein, listed as Bartonella henselae, His tag) KTKPEQLQALQIELTLLQAQLQADTLKIQSLAMIQAKDTKTKEELREEQTQKKHEDLQKQLKEKLEKSDVQL",,,,"area under ROC curve (AUC) ([2]; IgG ELISA, panel of 47 serum samples (27 IFA positive, 20 IFA negative), MedCalc ROC): 0.897; ability to bind antibodies in IgG ELISA ([2]; coating antigen, IFA positive vs IFA negative sera): binds to antibodies against Bartonella henselae; also recorded: identical, if not better, ability to bind antibodies when compared with the full-length 17-kDa protein; also recorded: better sensitivity in detecting positive serum than the full length antigen; reaction with IFA negative serum samples ([2]; panel of 12 IFA positive and 6 IFA negative serum samples): Neither antigen reacted with any of the IFA negative serum samples"
